Data as given in article PMC5383040, “Inhibition of prenylated KRAS in a lipid environment” (PLoS ONE, 2017).
Read-outs that look alike come from different tables or passages of the source.

Experiments:
[1] = biological target: T1, GTPγS-loaded, prenylated KRAS^G12V (Homo sapiens, UniProt P01116, G12V); test: Coupled KRAS-BRAF-MEK assay (BRAF activation by KRAS, AlphaScreen pMEK readout); type: biochemical
T1 construct: made in house; host or cells: insect cells (Sf9, Sf21 or Tn5), baculovirus

full length BRAF^V600E = biological target: T2, full length BRAF^V600E (Homo sapiens, UniProt P15056, V600E); test: BRAF^V600E counter-screen (coupled assay lacking KRAS); type: biochemical
T2 construct: made in house; host or cells: insect cells (Sf9, Sf21 or Tn5), baculovirus pBlueBac4.5
Description: An assay consisting of full length BRAF^V600E was used to flag inhibitors acting directly on BRAF, taking advantage of the constitutive activity of the BRAF mutant. […] The counter assay buffer, other components and order of addition matched the RAS-dependent assay except for the presence of KRAS. This assay was reproducible from run to run. […] After establishing reproducibility with this compound, all other compounds were measured with N≥2.

SW1990 cells = test: Proliferation assay (CellTiter-Glo); type: cell-based; conditions: Homo sapiens, 120 h, 5 days, read-out: Growth inhibition EC50
Description: Cells were seeded in 384-well plates and incubated with a 1:3 serial dilution of compound starting from 30 μM at 37°C with 5% CO2 for 5 days. Cell viability was measured using the CellTiter-Glo® Luminescent Cell Viability Assay kit (Promega) and read on an Envision (Perkin Elmer) plate reader. Percent growth inhibition was calculated by normalizing treatment to DMSO control. […] For every compound, each concentration was run in triplicate and all points were used for fitting a single curve.

[2] = biological target: T3, prenylated KRAS^G12V loaded with GTPγS (Homo sapiens, UniProt P01116, G12V); test: Biolayer interferometry (BLI) binding to full-length prenylated KRAS in PS; conditions: for binding in BLI studies: at 10 μM, full-length prenylated KRAS in PS
T3 construct: Avi-tag-(Gly)8 –KRAS^G12V (2–188) was cloned into the pFastBac1 vector; made in house; host or cells: Tn5 insect cells, co-infected with BirA virus
Description: Determination of Kds was performed on the Octet RED platform, according to the manufacturer's recommendations in their application note on small molecule analysis. The prenylated KRAS peptide containing the farnesyl group attached to the terminal cysteine (biotin-[sequence](farnesyl)-OCH3) was obtained from AnaSpec (Fremont, California). […] After incubation for 1h at RT, the protein was loaded into a 96-well plate (Greiner 655209), and loaded a BLI response of 3-4nm. […] A reference sensor was run to remove systematic drift, and a second set of SuperStreptavidin biosensors blocked with biocytin was examined to remove systematic optical interferences, and to check for non-specific binding of compounds to the biosensor. Kds were determined using the ForteBio analysis software tool, which determines Kd from the steady-state plot, or from the determination of the kinetic constants kon and koff.

SW1990 cells (KRAS^G12D) = test: Western blot analysis of pAKT and pERK in SW1990; type: cell-based, human; conditions: 3hrs treatment, dose-response
Description: (§1) Cells were seeded in 6-well plates and treated with compounds or DMSO at the indicated concentrations for 3hrs. Total cell lysates were prepared in either M-PER (Pierce) or RIPA lysis buffer (50 mM Tris-HCl, pH 8.0, 150 mM NaCl, 0.5% NP-40, 0.5% sodium deoxycholate) supplemented with 1x protease inhibitor cocktail (Sigma) and 1x phosphatase inhibitor cocktails (Sigma). Lysates were normalized for protein concentration, resolved by SDS-PAGE, transferred onto nitrocellulose membranes and probed with the indicated antibodies.

A375 cells (BRAF^V600E) = test: Western blot analysis of pAKT and pERK in A375; type: cell-based; conditions: 3hrs treatment
Description: as §1

KRAS construct 1–180 = biological target: T4, KRAS construct 1–180 (Homo sapiens, UniProt P01116, G12V); test: BLI control with KRAS construct lacking the C-terminus; type: binding; conditions: KRAS 1–180 lacking C-terminus and prenyl group, 10 μM compound
T4 construct: (His)6-TEV (N, cleaved yes); made in house; host or cells: E. coli BL21 (DE3), co-transformed with BirA

full-length KRAS = biological target: T5, full-length KRAS (Homo sapiens, UniProt P01116, G12V); test: BLI control with full-length KRAS in the absence of PS; type: binding
T5 construct: Avi-tag-(Gly)8 –KRAS^G12V (2–188) was cloned into the pFastBac1 vector; made in house; host or cells: Tn5 insect cells, co-infected with BirA virus
Description: Determination of Kds was performed on the Octet RED platform, according to the manufacturer's recommendations in their application note on small molecule analysis. The prenylated KRAS peptide containing the farnesyl group attached to the terminal cysteine (biotin-[…](farnesyl)-OCH3) was obtained from AnaSpec (Fremont, California). Proteins were obtained as described above. […] The protein was attached to SuperStreptavidin biosensors (ForteBio 18–5057) via Avi-tagged-KRAS G12V:[…], followed by the KRAS protein to a final concentration of 40nM. After incubation for 1h at RT, the protein was loaded into a 96-well plate (Greiner 655209), and loaded a BLI response of 3-4nm. […] A reference sensor was run to remove systematic drift, and a second set of SuperStreptavidin biosensors blocked with biocytin was examined to remove systematic optical interferences, and to check for non-specific binding of compounds to the biosensor. Kds were determined using the ForteBio analysis software tool, which determines Kd from the steady-state plot, or from the determination of the kinetic constants kon and koff. […] After establishing reproducibility with compound 3, all other compounds were measured in singleton.

[3] = biological target: T6, 18-residue KRAS C-terminal prenylated peptide (Homo sapiens, UniProt P01116); test: BLI with KRAS C-terminal prenylated peptide in PS; type: binding
T6 construct: (biotin-[…](farnesyl)-OCH3) was obtained from AnaSpec (Fremont, California); purchased AnaSpec (Fremont, California); host or cells: synthetic peptide
Description: Determination of Kds was performed on the Octet RED platform, according to the manufacturer's recommendations in their application note on small molecule analysis. The prenylated KRAS peptide containing the farnesyl group attached to the terminal cysteine (biotin-[…](farnesyl)-OCH3) was obtained from AnaSpec (Fremont, California). Proteins were obtained as described above. The assay buffer was 25mM Tris containing 190mM glycine, 5mM MgCl2, 0.01% Triton X-100, 1mM DTT and 1.3uM PS (liposome preparation as described above). The protein was attached to SuperStreptavidin biosensors (ForteBio 18–5057) via Avi-tagged-KRAS G12V:GTPγS with C-terminal prenylgroup by adding 2μL of the 5mg/mL solution of PS to 2mL of assay buffer, followed by the KRAS protein to a final concentration of 40nM. After incubation for 1h at RT, the protein was loaded into a 96-well plate (Greiner 655209), and loaded a BLI response of 3-4nm. […] Kds were determined using the ForteBio analysis software tool, which determines Kd from the steady-state plot, or from the determination of the kinetic constants kon and koff. […] After establishing reproducibility with compound 3, all other compounds were measured in singleton.

[4] = biological target: truncated GDP-loaded KRAS; conditions: cited from earlier work
[5] = design: method as in PMID 22431598; conditions: cited from earlier work
[6] = biological target: T7, non-prenylated GDP-KRAS^G12V (Homo sapiens, UniProt P01116, G12V); test: HSQC NMR binding / titration; conditions: non-processed GDP-loaded KRAS^G12V (1–169) in aqueous buffer, no PS; estimated from titration
T7 construct: HSQC experiments were run with ^15N-labeled and GDP-loaded K-RAS^G12V (1–169)
Description: (§2) The buffer contained 20mM Tris HCl, pH8.0, 50mM NaCl, 1mM MgCl2, 2mM DTT. […] 500 fragments from a fragment library [53] were screened by T1ρ ligand observation experiments, followed by protein-observed HSQC experiments. ^31P NMR spectra were acquired at 278°K on a Bruker AV400 spectrometer operating at 161.6 MHz ^31P frequency, equipped with a BBO probe.

[7] = biological target: T8, non-prenylated GMPPNP-loaded KRAS^G12V (Homo sapiens, UniProt P01116, G12V); test: 31P-NMR conformational state of KRAS; conditions: KRAS^G12V 5 mg/ml; 1 mM compound 2 or 0.5 mM CRAF-RBD
T8 construct: HSQC experiments were run with ^15N-labeled and GDP-loaded K-RAS^G12V (1–169)
Description: as §2

[8] = GTPγS-loaded full-length prenylated KRAS^G12V in PS, geomean, read-out: Coupled assay IC50
[9] = BRAF^V600E, no KRAS, geomean, read-out: Counter-screen IC50
[10] = full-length prenylated GTPγS-loaded KRAS^G12V, PS liposomes, read-out: Kd BLI
[11] = non-processed GDP-loaded KRAS in aqueous buffer, read-out: Kd HSQC

T2 sequence (P15056 whole entry V600E): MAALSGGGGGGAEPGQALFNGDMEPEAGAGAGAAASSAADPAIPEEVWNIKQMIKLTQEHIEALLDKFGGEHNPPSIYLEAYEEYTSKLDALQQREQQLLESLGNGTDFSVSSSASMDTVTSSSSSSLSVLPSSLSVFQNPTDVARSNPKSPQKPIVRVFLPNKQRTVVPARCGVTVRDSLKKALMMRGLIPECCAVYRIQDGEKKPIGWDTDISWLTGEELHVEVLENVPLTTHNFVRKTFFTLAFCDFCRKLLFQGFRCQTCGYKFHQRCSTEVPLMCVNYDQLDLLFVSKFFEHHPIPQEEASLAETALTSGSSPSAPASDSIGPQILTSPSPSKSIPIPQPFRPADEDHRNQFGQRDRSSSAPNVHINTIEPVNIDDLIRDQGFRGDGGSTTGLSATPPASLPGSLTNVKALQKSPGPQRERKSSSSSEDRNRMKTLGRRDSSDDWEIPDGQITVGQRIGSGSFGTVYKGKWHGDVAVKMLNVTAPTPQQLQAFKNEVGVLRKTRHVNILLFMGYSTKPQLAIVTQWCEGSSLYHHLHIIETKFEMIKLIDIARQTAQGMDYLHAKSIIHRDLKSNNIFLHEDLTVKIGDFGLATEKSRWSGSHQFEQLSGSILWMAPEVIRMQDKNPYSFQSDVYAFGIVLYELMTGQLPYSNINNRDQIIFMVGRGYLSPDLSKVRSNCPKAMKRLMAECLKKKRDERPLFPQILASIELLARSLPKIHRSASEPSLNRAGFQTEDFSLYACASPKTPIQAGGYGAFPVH

| Structure (SMILES) | IC50 [1, 8] [µM] | activity in the counter-screen (full length BRAF^V600E) | IC50 (full length BRAF^V600E; [9]) [µM] | EC50 (SW1990 cells) [µM] | Kd [2, 10] [nM] | effect on pAKT and pERK (cellular activity) (SW1990 cells (KRAS^G12D)) | effect on pAKT levels (A375 cells (BRAF^V600E)) | binding to prenylated peptide in BLI [3] | Kd [4, 11] [mM] | activity in the coupled assay [1] | binding in BLI studies [2] | further results |
| --- | --- | --- | --- | --- | --- | --- | --- | --- | --- | --- | --- | --- |
| Clc1ccc(C[C@@H]2C[C@@H](NCc3c[nH]c4ccccc34)CCN2)cc1 [Compound 3] | 1.2 | minimal activity was observed | > 25 | 1.2 | 2600 ± 800 | dose-dependent decreases in phosphorylation of both of the pathway markers | unexpected pattern of modulation | binds to the prenylated peptide in a concentration-dependent manner | – | – | – | binding in BLI (KRAS construct 1–180): minimal binding was observed; binding in BLI (full-length KRAS; 10 μM compound): some binding was observed; binding in BLI (full-length KRAS; up to 3.3 μM compound): no binding was observed |
| Cc1[nH]c2cc(Cl)cc(Cl)c2c1CCN [Compound 5, reference compound] | – | – | – | 18 | – | double-digit μM potency in cells | – | – | 1.1 | – | – | IC50 [1]: 7 µM; IC50 (full length BRAF^V600E): 29 µM; Kd [2]: 34000 nM; Kd ([4]; absence of a lipid environment, read-out: published Kd to truncated GDP-loaded KRAS): 1 mM; potency in cell-based assays [5]: 16 µM |
| O=C(Nc1ccc2nc(Cc3c[nH]c4ccccc34)[nH]c2c1)C1CCCN1 (centres unmarked) [Compound 6, reference compound] | – | negligible activity | 134 | > 30 | – | inactive in cells | – | – | 0.34 | negligible activity | – | – |
| O=C(N[C@H]1CCN[C@H](Cc2ccc(Cl)cc2)C1)c1c[nH]c2ccc(Br)cc12 [Compound 2] | 0.8 ± 0.7 | minimal activity was observed | 85 ± 47 | 2.7 ± 1.4 | 800 | dose-dependent decreases in phosphorylation of both of the pathway markers | unexpected pattern of modulation | – | – | – | minor non-specific binding | Kd [6]: 690 µM; γ-phosphate population (conformational state) by 31P-NMR [7]: shift to a single inactive population |
| O=C(N[C@H]1CCN(Cc2ccc(O)nc2)C1)c1c[nH]c2ccc(Cl)cc12 [Compound 4] | 49 | – | 115 | > 30 | > 10000 | inactive at the concentrations tested | – | did not bind | – | negligible biochemical activity | did not bind | – |
| CC(C)NCC(O)COc1cccc2cc[nH]c12 (centres unmarked) [Compound 1] | 87 ± 22 | – | > 250 | > 30 | – | inactive at the concentrations tested | – | – | – | – | – | – |
